How the values were obtained:
TNF = test: PBMC assay: TNF cytokine level after LPS stimulation; type: cell-based; settings: human PBMCs, 100 ng/ml LPS for 6 hrs, MSD, read-out: TNFα EC50
Method: (§1) Peripheral venous blood was collected from healthy individuals and human peripheral blood mononuclear cells (PBMCs) were isolated from blood by Ficoll-Histopaque (Sigma-Aldrich, A0561) density gradient centrifugation. After isolation, PBMCs were stored in liquid nitrogen for later use. Upon thawing, PBMC cell viability was determined in growth medium (RPMI media supplemented with 10% fetal bovine serum, 1% Pen-Strep and 1% L-glutamine). […] PBMCs were added at a density of 7.5×10^4 cells per well and incubated for 30 min in a 5% CO2 incubator at 37° C. LPS stimulation was performed by addition of 100 ng/ml LPS (final concentration, Invivogen, tlrl-smlps) for 6 hrs followed by collection of cellular supernatant and the analysis of IL-1β (μM) and TNF cytokines levels (μM) via MSD technology according to manufacturers' guidelines (MSD, K151A0H).

[1] = tested on: NLRP3 inflammasome pathway (IL-1β); test: PBMC assay: IL-1β release after LPS stimulation; type: cell-based; settings: human PBMCs, 100 ng/ml LPS for 6 hrs, MSD
Method: The activity of a compound according to the present invention can be assessed by in vitro methods.
as §1

| Structure (SMILES) | EC50 (TNF) [µM] | IC50 [1] [µM] |
| --- | --- | --- |
| Cc1nnc2n1C[C@H](NC(=O)Cc1nn(C(C)C)c3cc(C(F)(F)F)ccc3c1=O)CC2 (single isomer, unassigned) [F-12] | > 20 | > 20 |
| CCN1CC[C@@H](C)[C@@H](NC(=O)Cc2nn(C(C)C)c3cc(C(F)(F)F)ccc3c2=O)C1 (single isomer, unassigned) [F-88] | > 20 | > 20 |
| CCn1nc(CC(=O)Nc2ccncn2)c(=O)c2ccc(C3CC3)cc21 [F-8] | 12.9 | 0.66 |
| CC(C)n1nc(CC(=O)Nc2cc3c(cn2)ncn3C)c(=O)c2ccc(C(F)(F)F)cc21 [F-44] | > 20 | 4.91 |
| CC(C)n1nc(CC(=O)Nc2ccc(=O)n(C)c2)c(=O)c2ccc(C(C)(F)F)cc21 [F-52] | 16.1 | 0.84 |
| O=C(Cc1nn(C2CC2)c2cc(C3CC3)ccc2c1=O)Nc1ccc2nncn2c1 [F-59] | > 20 | 0.37 |
| CCn1nc(CC(=O)Nc2ccc3nccn3n2)c(=O)c2ccc(C(C)(F)F)cc21 [F-65] | 8.36 | 0.24 |
| CC(F)(F)c1ccc2c(=O)c(CC(=O)Nc3ccc4nncn4n3)nn(C3CC3)c2c1 [F-72] | 6.23 | 0.096 |
| CC(C)n1nc(CC(=O)Nc2ccncn2)c(=O)c2ccc(C3CC3)cc21 [F-79, 2-(7-cyclopropyl-1-isopropyl-4-oxo-1,4-dihydrocinnolin-3-yl)-N-(pyrimidin-4-yl)acetamide] | 16.6 |  |
| CC(C)n1nc(CC(=O)N[C@H]2C[C@@](C)(O)C2)c(=O)c2ccc(C3CC3)cc21 [F-80] | > 20 | 1.21 |
| CC(C)n1nc(CC(=O)Nc2ccc3nncn3c2)c(=O)c2ccc(C3CC3)cc21 [F-81] | 7.11 | 0.166 |
| CC(C)n1nc(CC(=O)Nc2nc3ccc(Cl)cc3n2C)c(=O)c2ccc(C(F)(F)F)cc21 [F-89] | > 20 | > 20 |
| CC(C)n1nc(CC(=O)Nc2nc3cc(Br)ccc3n2C)c(=O)c2ccc(C(F)(F)F)cc21 [F-90] | > 20 | > 20 |
| CC(C)n1nc(CC(=O)Nc2nc3cc(Cl)ccc3o2)c(=O)c2ccc(C(F)(F)F)cc21 [F-102] | > 20 | 6.03 |
| CCS(=O)(=O)c1ccc2oc(NC(=O)Cc3nn(C(C)C)c4cc(C(F)(F)F)ccc4c3=O)nc2c1 [F-105] | > 20 | 2.4 |
| CC(C)n1nc(CC(=O)Nc2cn3cc(Br)ncc3n2)c(=O)c2ccc(C(F)(F)F)cc21 [F-116, N-(6-bromoimidazo[1,2-a]pyrazin-2-yl)-2-(1-isopropyl-4-oxo-7-(trifluoromethyl)-1,4-dihydrocinnolin-3-yl)acetamide] | > 20 | 3.8 |
| CC(C)n1nc(CC(=O)Nc2nc3ccc(Br)nn3n2)c(=O)c2ccc(C(F)(F)F)cc21 [F-118] | > 10 | 1.61 |
| COc1ccc2nc(NC(=O)Cc3nn(C(C)C)c4cc(C(F)(F)F)ccc4c3=O)nn2c1 [F-119] | > 20 | 2.18 |
| CC(C)n1nc(CC(=O)Nc2nc3ccc(C(F)(F)F)cn3n2)c(=O)c2ccc(C(F)(F)F)cc21 [F-121] | > 20 | 6.87 |
| Cc1ccn2nc(NC(=O)Cc3nn(C(C)C)c4cc(C(F)(F)F)ccc4c3=O)nc2c1 [F-122] | > 20 | 0.354 |
| CC(C)n1nc(CC(=O)Nc2cn3ccncc3n2)c(=O)c2ccc(C(F)(F)F)cc21 [F-126] | > 20 | 5.62 |
| CC(C)n1nc(CC(=O)Nc2nc3cccnc3o2)c(=O)c2ccc(C(F)(F)F)cc21 [F-127] | > 20 | 4.35 |
| CC(C)n1nc(CC(=O)Nc2cc(F)[nH]c(=O)c2)c(=O)c2ccc(C(F)(F)F)cc21 [F-130, N-(6-fluoro-2-oxo-1,2-dihydropyridin-4-yl)-2-(1-isopropyl-4-oxo-7-(trifluoromethyl)-1,4-dihydrocinnolin-3-yl)acetamide] | 11.2 | 0.86 |
| CC(C)n1nc(CC(=O)Nc2ccc3nncn3n2)c(=O)c2ccc(C3CC3)cc21 [F-133, N-([1,2,4]triazolo[4,3-b]pyridazine-6-yl)-2-(7-cyclopropyl-1-isopropyl-4-oxo-1,4-dihydrocinnolin-3-yl)acetamide] | 15.6 | 0.16 |

Continued, values first:

| EC50 (TNF) [µM] | IC50 [1] [µM] | Structure (SMILES) |
| --- | --- | --- |
| > 20 | 2.7 | Cc1nnc2n1C[C@@H](NC(=O)Cc1nn(C(C)C)c3cc(C(F)(F)F)ccc3c1=O)CC2 (single isomer, unassigned) [F-13] |
| > 20 | 4.97 | CCN1CC[C@H](C)[C@H](NC(=O)Cc2nn(C(C)C)c3cc(C(F)(F)F)ccc3c2=O)C1 (single isomer, unassigned) [F-103] |
| > 20 | 0.123 | CC(C)n1nc(CC(=O)N[C@H]2C[C@@](C)(O)C2)c(=O)c2ccc(Br)cc21 [F-3] |
| 9.56 | 0.071 | CC(C)n1nc(CC(=O)Nc2ccc3nncn3c2)c(=O)c2ccc(Br)cc21 [F-4] |
| > 20 | 0.45 | CCn1nc(CC(=O)Nc2ccncn2)c(=O)c2ccc(Br)cc21 [F-7] |
| > 20 | 10.2 | CC(C)n1nc(CC(=O)NC2CC(C(C)(C)O)C2)c(=O)c2ccc(C(F)(F)F)cc21 (stereo not shown) [F-9] |
| > 20 | 4.02 | Cc1nnc2n1CC(NC(=O)Cc1nn(C(C)C)c3cc(C(F)(F)F)ccc3c1=O)CC2 (stereo not shown) [F-11] |
| > 20 | 6.73 | CC(C)n1nc(CC(=O)Nc2cc(C(F)(F)F)ncn2)c(=O)c2ccc(C(F)(F)F)cc21 [F-16] |
| > 10 | > 10 | CCn1nc(CC(=O)N[C@H]2C[C@@](C)(OC(=O)Cc3nn(CC)c4cc(Br)ccc4c3=O)C2)c(=O)c2ccc(Br)cc21 [F-23] |
| 19.9 | 0.79 | CC(C)n1nc(CC(=O)Nc2ccc3nccn3c2)c(=O)c2ccc(C(F)(F)F)cc21 [F-35] |
| > 20 | 1.65 | CC(C)n1nc(CC(=O)Nc2ccn3ncnc3c2)c(=O)c2ccc(C(F)(F)F)cc21 [F-37] |
| > 20 | 1.75 | CC(C)n1nc(CC(=O)Nc2ccn3ccnc3c2)c(=O)c2ccc(C(F)(F)F)cc21 [F-38] |
| 19.2 | 2.26 | CC(C)n1nc(CC(=O)Nc2ccc3cnnn3c2)c(=O)c2ccc(C(F)(F)F)cc21 [F-40] |
| 9.74 | 0.71 | CC(C)n1nc(CC(=O)Nc2ccc(=O)n(C)n2)c(=O)c2ccc(C(C)(F)F)cc21 [F-53] |
| > 20 | 0.685 | CC(C)n1nc(CC(=O)Nc2ccc3ncn(C)c3n2)c(=O)c2ccc(C(F)(F)F)cc21 [F-54] |
| > 20 | 0.62 | O=C(Cc1nn(C2CC2)c2cc(C3CC3)ccc2c1=O)Nc1ccc2nccn2n1 [F-55] |
| 18.5 | 0.53 | CCn1nc(CC(=O)Nc2ccc3nncn3n2)c(=O)c2ccc(C(F)(F)F)cc21 [F-56] |

| EC50 (TNF) [µM] | IC50 [1] [µM] | Structure (SMILES) |
| --- | --- | --- |
| > 20 | 0.27 | O=C(Cc1nn(C2CC2)c2cc(C(F)(F)F)ccc2c1=O)Nc1ccc2nncn2c1 [F-63] |
| 17.4 | 0.166 | CCn1nc(CC(=O)Nc2ccc3nncn3c2)c(=O)c2ccc(C(C)C)cc21 [F-69] |
| > 20 | 0.06 | CCn1nc(CC(=O)Nc2ccc3nncn3n2)c(=O)c2ccc(Br)cc21 [F-73] |
| > 20 | 0.18 | CCn1nc(CC(=O)Nc2ccc3nncn3c2)c(=O)c2ccc(C3CC3)cc21 [F-82] |
| > 20 | 1.15 | CCn1nc(CC(=O)N[C@H]2C[C@@](C)(O)C2)c(=O)c2ccc(C3CC3)cc21 [F-83] |
| > 20 | > 20 | CC(C)n1nc(CC(=O)Nc2ccc(C(F)(F)F)nn2)c(=O)c2ccc(C(F)(F)F)cc21 [F-84, 2-(1-isopropyl-4-oxo-7-(trifluoromethyl)-1,4-dihydrocinnolin-3-yl)-N-(6-(trifluoromethyl)pyridazine-3-yl)acetamide] |
| > 20 | 13.4 | CC(C)n1nc(CC(=O)Nc2ccc(C(F)F)nn2)c(=O)c2ccc(C(F)(F)F)cc21 [F-87] |
| > 20 | 0.99 | O=C(Cc1nn(C2CC2)c2cc(C3CC3)ccc2c1=O)Nc1cn2cnnc2cn1 [F-109] |
| > 20 | 0.53 | CC(C)n1nc(CC(=O)Nc2cn3cnnc3cn2)c(=O)c2ccc(C(F)(F)F)cc21 [F-112] |
| > 20 | 0.835 | CC(C)n1nc(CC(=O)Nc2nc3c(Cl)cccn3n2)c(=O)c2ccc(C(F)(F)F)cc21 [F-117] |
| > 20 | 11.6 | CC(C)n1nc(CC(=O)Nc2nc3nccc(C4CC4)n3n2)c(=O)c2ccc(C(F)(F)F)cc21 [F-120] |
| > 20 | 1.97 | CC(C)n1nc(CC(=O)Nc2cn3cccnc3n2)c(=O)c2ccc(C(F)(F)F)cc21 [F-123] |
| > 20 | 0.123 | CC(C)n1nc(CC(=O)Nc2nc3cnccn3n2)c(=O)c2ccc(C(F)(F)F)cc21 [F-124] |
| > 20 | 2.59 | CC(C)n1nc(CC(=O)Nc2cc3ncccn3n2)c(=O)c2ccc(C(F)(F)F)cc21 [F-125] |
| > 20 | 0.66 | Cc1ccn2nc(NC(=O)Cc3nn(C(C)C)c4cc(C(F)(F)F)ccc4c3=O)nc2n1 [F-128] |
| > 20 | 3.23 | CC(C)n1nc(CC(=O)Nc2nc3ncc(Br)cn3n2)c(=O)c2ccc(C(F)(F)F)cc21 [F-129] |
| > 20 | 0.656 | CC(C)n1nc(CC(=O)Nc2ccc3nc(C(F)(F)F)cn3c2)c(=O)c2ccc(C(F)(F)F)cc21 [F-131] |

Reference: US20230391756A1, “NEW COMPOUND” (JANSSEN PHARMACEUTICA NV, priority 2020, published 2023)
